From patent US10668047B2, “Aziridine containing DNA alkylating agents” (priority 2015, dated 2020)
Like-named read-outs stand apart in the source and are kept apart here.

Experiments:
[1] = tested on: H460 non-cell lung cancer human tumor cell line; experiment: In vitro human tumor cell line cytotoxicity (proliferation) assay, AlamarBlue; type: cell-based
How it was run: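 H460 cells (4×10^3/well) attached for 24 h, then were exposed to compound for 2 hours at 37° C. before washout and 70 hrs further growth in fresh medium. Viable cells were measured by AlamarBlue, and IC50 (50% growth inhibition) was determined relative to media-only control.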

[2] = MTD determination, administered daily for 5 days (preliminary studies for the H460 xenograft model); type: in vivo, nude mice (nu/nu); details: on the basis of weight loss and behavioral signs, female nude mice
Method: On the basis of the favorable in vitro data for these compounds, their anti-tumor activities in the H460 (NSCLC) human tumor xenograft model were evaluated. H460 cells (lx 10^6) were subcutaneously implanted in the flanks of pathogen-free homozygous female nude mice (nu/nu, Charles River Laboratories). When tumor size reached 100-150 mm^3, animals were randomized to 10 mice per treatment group. All tested compounds were formulated in 5% DMSO, 5% Tween 80 in D5W. The doses of all the compounds were chosen on the basis of preliminary studies to define the MTD of each compound when administered daily for 5 days. On the basis of weight loss and behavioral signs, the MTDs of TH2565 and TH2566 were determined to be 2 mg/kg, respectively. The comparative tumor volume reductions for certain compounds are graphically illustrated in FIGS. 1A-1C.

[3] = Homo sapiens, NCI-H460, read-out: IC50 (N2), H460 cells, under nitrogen, 2 hrs exposure, wash, then 70 hrs growth
[4] = Homo sapiens, NCI-H460, read-out: IC50 (air), H460 cells, under air, 2 hrs exposure, wash, then 70 hrs growth
[5] = Homo sapiens, NCI-H460, H460 cells, under air, 2 hrs exposure, wash, then 70 hrs growth, read-out: IC50 (air)
[6] = Homo sapiens, NCI-H460, H460 cells, under nitrogen, 2 hrs exposure, wash, then 70 hrs growth, read-out: IC50 (N2)
[7] = H460 cells, under air, 2 hrs exposure, wash, then 70 hrs growth, read-out: IC50 (air)
[8] = H460 cells, under nitrogen, 2 hrs exposure, wash, then 70 hrs growth, read-out: IC50 (N2)

| SMILES | IC50 [1, 5] | IC50 [1, 6] | other results |
| --- | --- | --- | --- |
| CC(OP(=O)(N1CC1)N1CC1)c1ccc([N+](=O)[O-])cc1 (single isomer, unassigned) [compound 2565] |  |  | IC50 [1, 3]: 0.1 µM; IC50 [1, 4]: 18 µM; MTD at 5 days ([2]; nude (nu/nu), mouse, in vivo): 2 mg/kg |
| CC(OP(=O)(N1CC1)N1CC1)c1ccc([N+](=O)[O-])cc1 (single isomer, unassigned) [compound 2566] |  |  | IC50 ([1]; read-out: IC50 (N2), H460 cells, under nitrogen, 2 hrs exposure, wash, then 70 hrs growth): 0.1 µM; IC50 ([1]; read-out: IC50 (air), H460 cells, under air, 2 hrs exposure, wash, then 70 hrs growth): 23 µM; MTD [2]: 2 mg/kg |
| CC(OP(=O)(N1CC1)N1CC1)c1ccc([N+](=O)[O-])c(-n2ccnc2-c2ccccc2)c1 (stereo not shown) [compound 2766] | 4.8 µM | 0.7 µM |  |
| CC(OP(=O)(N1CC1)N1CC1)c1ccc([N+](=O)[O-])c(-n2ncc3ccccc32)c1 (stereo not shown) [compound 2767] | 2.3 µM | 0.2 µM |  |
| CC(OP(=O)(N1CC1)N1CC1)c1ccc([N+](=O)[O-])c(-n2nccn2)c1 (stereo not shown) [compound 2771] | 14 µM | 0.03 µM |  |
| CC(OP(=O)(N1CC1)N1CC1)c1ccc([N+](=O)[O-])c(-n2ccnn2)c1 (stereo not shown) [compound 2772] | 26 µM | 0.05 µM |  |
| CC(OP(=O)(N1CC1)N1CC1)c1ccc([N+](=O)[O-])c(Br)c1 (stereo not shown) [compound 2773] | 16 µM | 0.7 µM |  |
| CC(OP(=O)(N1CC1)N1CC1)c1ccc([N+](=O)[O-])c(-c2ccc(C(F)(F)F)cc2)c1 (stereo not shown) [compound 2774] | 3.5 µM | 0.8 µM |  |
| CC(OP(=O)(N1CC1)N1CC1)c1ccc([N+](=O)[O-])c(-c2ccc(C#N)cc2)c1 (stereo not shown) [compound 2775] | 2.5 µM | 0.3 µM |  |
| C=Cc1cc(C(C)OP(=O)(N2CC2)N2CC2)ccc1[N+](=O)[O-] (stereo not shown) [compound 2776] | 2.5 µM | 0.4 µM |  |
| CC(OP(=O)(N1CC1)N1CC1)c1ccc([N+](=O)[O-])c(-n2nnc3ccccc32)c1 (stereo not shown) [compound 2777] | 3.4 µM | 0.01 µM |  |
| CC(OP(=O)(N1CC1)N1CC1)c1ccc([N+](=O)[O-])c(-c2ccco2)c1 (stereo not shown) [compound 2782] | 41 µM | 1.7 µM |  |
| CC(OP(=O)(N1CC1)N1CC1)c1ccc([N+](=O)[O-])c(-c2cccs2)c1 (stereo not shown) [compound 2783] | 51 µM | 1.7 µM |  |
| CC(OP(=O)(N1CC1)N1CC1)c1ccc([N+](=O)[O-])c(-c2ccccc2)c1 (stereo not shown) [compound 2785] | 47 µM | 1.6 µM |  |
| CC(OP(=O)(N1CC1)N1CC1)c1ccc([N+](=O)[O-])c(-c2ccccc2F)c1 (stereo not shown) [compound 2786] | 69 µM | 2.5 µM |  |
| CC(OP(=O)(N1CC1)N1CC1)c1cc(-n2nnc3ccccc32)c([N+](=O)[O-])cc1F (stereo not shown) [compound 2787] | 2.3 µM | 0.02 µM |  |
| CC(OP(=O)(N1CC1)N1CC1)c1ccc([N+](=O)[O-])c(-c2ccc(F)cc2)c1 (stereo not shown) [compound 2788] | 22 µM | 1.3 µM |  |

| SMILES | IC50 [1, 5] | IC50 [1, 6] | other results |
| --- | --- | --- | --- |
| Cc1ccc(-c2cc(C(C)OP(=O)(N3CC3)N3CC3)ccc2[N+](=O)[O-])cc1 (stereo not shown) [compound 2789] | 36 µM | 2.4 µM |  |
| CC(OP(=O)(N1CC1)N1CC1)c1ccc([N+](=O)[O-])c(-c2ccc(-c3ccccc3)cc2)c1 (stereo not shown) [compound 2790] | 4 µM | 1.8 µM |  |
| C#Cc1cc(C(C)OP(=O)(N2CC2)N2CC2)ccc1[N+](=O)[O-] (stereo not shown) [compound 2792] | 3.7 µM | 0.2 µM |  |
| CC(OP(=O)(N1CC1)N1CC1)c1ccc([N+](=O)[O-])c(-c2cn(COC(=O)C(C)(C)C)nn2)c1 (stereo not shown) [compound 2793] | 4 µM | 0.4 µM |  |
| CC(OP(=O)(N1CC1)N1CC1)c1ccc([N+](=O)[O-])c(-n2c(N)nc3ccccc32)c1 (stereo not shown) [compound 2798] | 32 µM | 0.6 µM |  |
| CC(OP(=O)(N1CC1)N1CC1)c1ccc([N+](=O)[O-])c(-c2ccccc2C(F)(F)F)c1 (stereo not shown) [compound 2799] | 37 µM | 2.3 µM |  |
| Cc1ccccc1-c1cc(C(C)OP(=O)(N2CC2)N2CC2)ccc1[N+](=O)[O-] (stereo not shown) [compound 2800] | 30 µM | 1.3 µM |  |
| CC(OP(=O)(N1CC1)N1CC1)c1ccc([N+](=O)[O-])c(-c2cccc(C#N)c2)c1 (stereo not shown) [compound 2801] | 47 µM | 2.2 µM |  |
| CC(OP(=O)(N1CC1)N1CC1)c1ccc([N+](=O)[O-])c(-c2cccc(C(F)(F)F)c2)c1 (stereo not shown) [compound 2802] | 22 µM | 2.8 µM |  |
| CC(OP(=O)(N1CC1)N1CC1)c1ccc([N+](=O)[O-])c(-n2ccnc2)c1 (stereo not shown) [compound 2803] |  |  | IC50 [1, 7]: 150 µM; IC50 [1, 8]: 0.3 µM |
| CC(OP(=O)(N1CC1)N1CC1)c1ccc([N+](=O)[O-])c(-n2ccnc2)c1 (stereo not shown) [compound 2804] |  |  | IC50 [1, 7]: 310 µM; IC50 [1, 8]: 0.6 µM |
| CC(OP(=O)(N1CC1)N1CC1)c1ccc([N+](=O)[O-])c(-c2cn(-c3ccc(F)cc3)nn2)c1 (stereo not shown) [compound 2806] | 5.4 µM | 0.3 µM |  |
| CC(OP(=O)(N1CC1)N1CC1)c1ccc([N+](=O)[O-])c(-n2ccnc2Br)c1 (stereo not shown) [compound 2807] | 13 µM | 0.03 µM |  |
| CC(OP(=O)(N1CC1)N1CC1)c1ccc([N+](=O)[O-])c(C[N+](=O)[O-])c1 (stereo not shown) [compound 2811] |  |  | IC50 [1, 3]: 0.1 µM; IC50 [1, 4]: 8.4 µM |
| CC(OP(=O)(N1CC1)N1CC1)c1ccc([N+](=O)[O-])c(C(F)F)c1 (stereo not shown) [compound 2821] | 5 µM | 0.05 µM |  |
| CC(OP(=O)(N1CC1)N1CC1)c1ccc([N+](=O)[O-])c(CF)c1 (stereo not shown) [compound 2822] | 3.1 µM | 0.3 µM |  |
| CC(OP(=O)(N1CC1)N1CC1)c1ccc([N+](=O)[O-])c2ccccc12 (stereo not shown) [compound 2824] | 1.7 µM | 0.02 µM |  |
